Measurements taken from patent US20160206688A1, “METHODS FOR TREATING BACTEREMIA AND OSTEOMYELITIS USING ORITAVANCIN” (THE MEDICINES COMPANY, priority 2013, published 2016).
≈ marks a conversion by molar mass, not a printed value. Read-outs that look alike come from different tables or passages of the source. Values belong to the molecule of their own block, whether it stands above or below them.

Tests used:
[1] = system: S. aureus; test: Broth microdilution MIC, European bacteraemia isolates 2010-2012; format: cell-based; conditions: S. aureus Methicillin-resistant (1,708); for % Resistant, CLSI / % Susceptible, CLSI: CLSI M100-S23 breakpoints; for % Resistant, EUCAST / % Susceptible, EUCAST: EUCAST 2013 breakpoints; for MIC50 / MIC90: Staphylococcus aureus; for MIC50 / MIC90 / MIC Range: Table 2
Method: (§1) A total of 2,904 clinical strains responsible for documented bacteremia among unique hospitalized patients in 38 hospitals in 11 European Union countries. Israel, Russia, Turkey and Ukraine were included in this study (2010-2012). Isolates were submitted to a central monitoring laboratory (JMI Laboratories, North Liberty. Iowa. USA), following previously established protocols. Bacterial species identification was performed by using an automated system (Vitek®2; bioMèrieux, Hazelwood, Mo., USA) or conventional biochemical algorithms, as required.
(§2) Isolates were tested for susceptibility by broth microdilution methods following the Clinical and Laboratory Standards Institute (CLSI; M07-A9, 2012) document. Susceptibility testing was performed in cation-adjusted Mueller-Hinton broth (CA-MHB) using dry-form panels manufactured by Thermo Fisher Scientific, formerly TREK Diagnostics Systems/Sensititre (Cleveland. Ohio, USA). These panels provide results equivalent to the CLSI-approved broth microdilution method supplemented with 0.002% polysorbate-80.
(§3) Quality assurance was performed by concurrent testing of CLSI-recommended (M100-S23, 2013) strains: E. faecalis ATCC 29212 and S. aureus ATCC 29213. Interpretation of comparator MIC results was in accordance with published CLSI (M100-S23) and European Committee on Antimicrobial Susceptibility Testing (EUCAST, 2013) criteria.

[2] = system: E. faecalis; test: Broth microdilution MIC, US isolates 2011-2012, blood vs non-blood; format: cell-based
Method: (§4) 527 E. faecalis, 176 E. faecium, and 790 BHS (335 S. pyogenes and 455 S. agalactiae) clinical, single patient, non-consecutive isolates were collected in 2011-2012 from 46 sites geographically distributed across the United States. The MICs were determined by broth microdilution testing performed in accordance with CLSI M7 and M100 guidelines. From the resulting database, this analysis focused on the activities of ORI, vancomycin (VAN), daptomycin (DAP), and linezolid (LZD) according to specimen source.

[3] = system: S. agalactiae; test: as above; format: cell-based
Method: as §4

[4] = system: S. pyogenes; test: as above; format: cell-based
Method: as §4

[5] = system: E. faecium; test: as above; format: cell-based
Method: as §4

[6] = system: E. faecalis; test: Broth microdilution MIC, European bacteraemia isolates 2010-2012; format: cell-based, Enterococcus faecalis; conditions: for % Resistant, CLSI / % Susceptible, CLSI: CLSI M100-S23 breakpoints; for % Resistant, EUCAST / % Susceptible, EUCAST: EUCAST 2013 breakpoints; for % susceptible: E. faecalis strains, criteria not stated; for MIC50 / MIC90: Enterococcus faecalis
Method: as §1, §2, §3

[7] = system: Coagulase-negative staphylococci; test: as above; format: cell-based, coagulase-negative staphylococci (CoNS); conditions: Coagulase-negative staphylococci (646); for % Resistant, CLSI: CLSI M100-S23 breakpoints
Method: as §1, §2, §3

[8] = system: E. faecium; test: as above; format: cell-based, Enterococcus faecium; conditions: for % Resistant, CLSI / % Susceptible, CLSI: CLSI M100-S23 breakpoints; for % Resistant, EUCAST / % Susceptible, EUCAST: EUCAST 2013 breakpoints
Method: as §1, §2, §3

[9] = system: MDR SA; test: Microdilution MIC against MDR SA by specimen source; format: cell-based, S. aureus
Method: 456 clinical, single-patient, non-consecutive, MDR SA isolates from the known specimen sources collected in 2011-2012 were analyzed. MDR was defined as resistant to ≧3 of the following: erythromycin, clindamycin, gentamicin, levofloxacin, and trimethoprim/sulfamethoxazole. 382 were MRSA and 74 were MSSA. MICs were determined by microdilution testing in accordance with CLSI M7 and M100 guidelines. Although other comparator drugs were tested, this analysis focuses on the activities of ORI, VAN, DAP, and LZD.

[10] = system: VRE; test: Susceptibility of the subject's blood culture isolate (treatment history); format: cell-based; conditions: 2012 July
Text: 11, 2013; the plan was for at least 8 weeks of antibiotic therapy.

[11] = E. faecium Vancomycin-resistant (VanA-phenotype) (153)
[12] = E. faecium Vancomycin-susceptible (257)
[13] = Table 2, E. faecium Vancomycin-resistant (VanA-phenotype) (153)
[14] = Table 2, E. faecium Vancomycin-susceptible (257)
[15] = Enterococcus faecium, Table 2, E. faecium Vancomycin-resistant (VanA-phenotype) (153)
[16] = Enterococcus faecium, Table 2, E. faecium Vancomycin-susceptible (257)

- MIC50 ([1]; read-out: MIC 50%): 1 µg/mL (≈ 2.96 µM)
- MIC90 ([1]; read-out: MIC 90%): 1 µg/mL (≈ 2.96 µM)
- MIC Range [1]: 0.25 to 2 µg/mL
- MIC90 ([2]; Blood, N 116): 2 µg/mL (≈ 5.93 µM)
- MIC90 ([2]; Non-Blood, N 411): 2 µg/mL (≈ 5.93 µM)
- MIC90 ([3]; Blood, N 100): 1 µg/mL (≈ 2.96 µM)
- MIC90 ([3]; Non-Blood, N 355): 1 µg/mL (≈ 2.96 µM)
- MIC90 ([4]; Blood, N 53): 1 µg/mL (≈ 2.96 µM)
- MIC90 ([4]; Non-Blood, N 282): 1 µg/mL (≈ 2.96 µM)
- MIC90 ([5]; Blood, N 84): 2 µg/mL (≈ 5.93 µM)
- MIC90 ([5]; Non-Blood, N 92): 2 µg/mL (≈ 5.93 µM)
- MIC50 ([6]; Table 2, E. faecalis (445), read-out: MIC 50%): 1 µg/mL (≈ 2.96 µM)
- MIC90 ([6]; Table 2, E. faecalis (445), read-out: MIC 90%): 2 µg/mL (≈ 5.93 µM)
- MIC Range ([6]; Table 2, E. faecalis (445), includes four VanA-phenotype strains): 0.5 to 2 µg/mL
- MIC50 ([7]; Table 2, read-out: MIC 50%): 0.5 µg/mL (≈ 1.48 µM)
- MIC90 ([7]; Table 2, read-out: MIC 90%): 1 µg/mL (≈ 2.96 µM)
- MIC50 ([8]; Enterococcus faecium, Table 2, E. faecium Vancomycin-resistant (VanA-phenotype) (153), read-out: MIC 50%): 1 µg/mL (≈ 2.96 µM)
- MIC90 ([8]; Enterococcus faecium, Table 2, E. faecium Vancomycin-resistant (VanA-phenotype) (153), read-out: MIC 90%): 2 µg/mL (≈ 5.93 µM)
- MIC90 ([8]; Enterococcus faecium, Table 2, E. faecium Vancomycin-susceptible (257), read-out: MIC 90%): 1 µg/mL (≈ 2.96 µM)
- MIC Range [8, 13]: 0.5 to 8 µg/mL
- MIC 50% [8, 14]: 1 µg/mL (≈ 2.96 µM)
- MIC Range [8, 14]: 0.25 to 2 µg/mL
- MIC50 ([9]; Blood, n = 108): 2 µg/mL (≈ 5.93 µM)
- MIC90 ([9]; Blood, n = 108): 2 µg/mL (≈ 5.93 µM)
- Mode (MIC) ([9]; Blood, n = 108): 2 µg/mL
- MIC50 ([9]; Respiratory, N = 157): 2 µg/mL (≈ 5.93 µM)
- MIC90 ([9]; Respiratory, N = 157): 2 µg/mL (≈ 5.93 µM)
- Mode (MIC) ([9]; Respiratory, N = 157): 2 µg/mL
- MIC50 ([9]; Skin/Wound, N = 191): 2 µg/mL (≈ 5.93 µM)
- MIC90 ([9]; Skin/Wound, N = 191): 2 µg/mL (≈ 5.93 µM)
- Mode (MIC) ([9]; Skin/Wound, N = 191): 2 µg/mL
Structure (SMILES): CC(=O)NC[C@H]1CN(c2ccc(N3CCOCC3)c(F)c2)C(=O)O1 [Linezolid, linezolid]
- % Resistant, CLSI [1]: 0.0%
- % Susceptible, CLSI [1]: 100.0%
- % Resistant, EUCAST [1]: 0.0%
- % Susceptible, EUCAST [1]: 100.0%
- % Resistant, CLSI ([6]; E. faecalis (445)): 0.0%
- % Susceptible, CLSI ([6]; E. faecalis (445)): 100.0%
- % Resistant, EUCAST ([6]; E. faecalis (445)): 0.0%
- % Susceptible, EUCAST ([6]; E. faecalis (445)): 100.0%
- % susceptible [6]: 100%
- % Resistant, CLSI [7]: 0.8%
- % Resistant, CLSI [8, 11]: 3.8%
- % Susceptible, CLSI [8, 11]: 96.2%
- % Resistant, EUCAST [8, 11]: 3.8%
- % Susceptible, EUCAST [8, 11]: 96.2%
- % Resistant, CLSI [8, 12]: 0.0%
- % Susceptible, CLSI [8, 12]: 100.0%
- % Resistant, EUCAST [8, 12]: 0.0%
- % Susceptible, EUCAST [8, 12]: 100.0%
- % susceptible ([8]; VanA-phenotype E. faecium, criteria not stated): 96.2%
- susceptibility [10]: susceptible

Structure (SMILES): CN[C@H](CC(C)C)C(=O)N[C@H]1C(=O)N[C@@H](CC(N)=O)C(=O)N[C@H]2C(=O)N[C@H]3C(=O)N[C@H](C(=O)N[C@H](C(=O)O)c4cc(O)cc(O)c4-c4cc3ccc4O)[C@H](O)c3ccc(c(Cl)c3)Oc3cc2cc(c3O[C@@H]2O[C@H](CO)[C@@H](O)[C@H](O)[C@H]2O[C@H]2C[C@](C)(N)[C@H](O)[C@H](C)O2)Oc2ccc(cc2Cl)[C@H]1O [Vancomycin, vancomycin]
- % Resistant, CLSI [1]: 0.0%
- % Susceptible, CLSI [1]: 100.0%
- % Resistant, EUCAST [1]: 0.0%
- % Susceptible, EUCAST [1]: 100.0%
- MIC50 [1]: 1 µg/mL (≈ 0.69 µM)
- MIC90 [1]: 1 µg/mL (≈ 0.69 µM)
- MIC Range [1]: 0.25 to 2 µg/mL
- MIC90 ([2]; Blood, N 116): 2 µg/mL (≈ 1.38 µM)
- MIC90 ([2]; Non-Blood, N 411): 2 µg/mL (≈ 1.38 µM)
- MIC90 ([3]; Blood, N 100): 0.5 µg/mL (≈ 0.345 µM)
- MIC90 ([3]; Non-Blood, N 355): 0.5 µg/mL (≈ 0.345 µM)
- MIC90 ([4]; Blood, N 53): 0.25 µg/mL (≈ 0.173 µM)
- MIC90 ([4]; Non-Blood, N 282): 0.25 µg/mL (≈ 0.173 µM)
- MIC90 ([5]; Blood, N 84): > 32 µg/mL
- MIC90 ([5]; Non-Blood, N 92): > 32 µg/mL
- % Resistant, CLSI ([6]; E. faecalis (445)): 0.9%
- % Susceptible, CLSI ([6]; E. faecalis (445)): 99.1%
- % Resistant, EUCAST ([6]; E. faecalis (445)): 0.9%
- % Susceptible, EUCAST ([6]; E. faecalis (445)): 99.1%
- % susceptible [6]: 99.1%
- MIC50 [6]: 1 µg/mL (≈ 0.69 µM)
- MIC90 [6]: 2 µg/mL (≈ 1.38 µM)
- % Resistant, CLSI [7]: 0.0%
- MIC50 ([7]; Table 2): 2 µg/mL (≈ 1.38 µM)
- MIC90 ([7]; Table 2): 2 µg/mL (≈ 1.38 µM)
- MIC Range ([7]; Table 2): 0.25 to 4 µg/mL
- % Resistant, CLSI [8, 11]: 100.0%
- % Susceptible, CLSI [8, 11]: 0.0%
- % Resistant, EUCAST [8, 11]: 100.0%
- % Susceptible, EUCAST [8, 11]: 0.0%
- % Resistant, CLSI [8, 12]: 0.0%
- % Susceptible, CLSI [8, 12]: 100.0%
- % Resistant, EUCAST [8, 12]: 0.0%
- % Susceptible, EUCAST [8, 12]: 100.0%
- MIC50 [8, 15]: > 16 µg/mL
- MIC90 [8, 15]: > 16 µg/mL
- MIC50 [8, 16]: 1 µg/mL (≈ 0.69 µM)
- MIC90 [8, 16]: 1 µg/mL (≈ 0.69 µM)
- MIC ([8]; Enterococcus faecium, read-out: MIC values): > 4 µg/mL
- MIC Range [8, 13]: >16 µg/mL
- MIC Range [8, 14]: 0.5 to 4 µg/mL
- MIC50 ([9]; Blood, n = 108): 0.5 µg/mL (≈ 0.345 µM)
- MIC90 ([9]; Blood, n = 108): 1 µg/mL (≈ 0.69 µM)
- Mode (MIC) ([9]; Blood, n = 108): 0.5 µg/mL
- Range (MIC) ([9]; Blood, n = 108, in µg/mL): 0.5-2
- MIC50 ([9]; Respiratory, N = 157): 0.5 µg/mL (≈ 0.345 µM)
- MIC90 ([9]; Respiratory, N = 157): 1 µg/mL (≈ 0.69 µM)
- Mode (MIC) ([9]; Respiratory, N = 157): 0.5 µg/mL
- Range (MIC) ([9]; Respiratory, N = 157): ≦0.25-1
- MIC50 ([9]; Skin/Wound, N = 191): 0.5 µg/mL (≈ 0.345 µM)
- MIC90 ([9]; Skin/Wound, N = 191): 1 µg/mL (≈ 0.69 µM)
- Mode (MIC) ([9]; Skin/Wound, N = 191): 0.5 µg/mL
- Range (MIC) ([9]; Skin/Wound, N = 191): ≦0.25-1
